Results from patent US20180185408A1, “ANTIFUNGAL NYLON-3 POLYMERS AND COMBINATION THERAPY USING THEM TO TREAT FUNGAL INFECTIONS” (priority 2016, published 2018).
Converted amounts (≈) assume the structure as drawn. “And” between values parts separate entries of the source, which are not always exact repeats. Equal values may be shown once. Read-outs that look alike come from different tables or passages of the source.

Columns and labels:
Assay type in all cases: cell-based
Candida albicans [1] = assay: MIC by broth microdilution (CLSI M27-A3); set-up: polymer efficacy against budding yeasts, 50%: unit not given here; conditions: for MIC: read-out: MIC
Candida lusitaniae [2] = assay: MIC by broth microdilution (CLSI M27-A3)
Candida albicans [3] = assay: Minimum fungicidal concentration (MFC), plating after MIC assay
Candida lusitaniae [4] = assay: as above; conditions: Clavispora lusitaniae, C. Lusitania (CL3), Sensitive; RPMI 1640 (0.2% Glucose); […]10^5 cells/mL; 30° C.; read-out: MFC
Cryptococcus neoformans [5] = assay: MIC by broth microdilution (CLSI M27-A3); conditions: for MIC: […]10^3 cells/mL
Cryptococcus gattii [6] = assay: MIC by broth microdilution (CLSI M27-A3); conditions: Cryptococcus gattii, […]10^3 cells/mL, read-out: MIC
Cryptococcus neoformans [7] = assay: Minimum fungicidal concentration (MFC), plating after MIC assay
Cryptococcus gattii [8] = assay: as above; conditions: Cryptococcus gattii, Sensitive, RPMI 1640 (0.2% Glucose), […]10^3 cells/mL, 37° C., read-out: MFC
Candida spp. = assay: MIC and MFC by broth microdilution, summary over Candida strains
Cryptococcus spp. = assay: MIC and MFC by broth microdilution, summary over Cryptococcus strains
filamentous fungi = assay: MIC100 against non-Aspergillus filamentous fungi (CLSI M38-A2); conditions: Cryptococcus depauperatus, CBS7855; Filobasidiella depauperata isolate CBS 7855; 50% reduction in growth

With `OC(Cn1cncn1)(Cn1cncn1)c1ccc(F)cc1F` [FLC, fluconazole] the MIC50 (Candida albicans [1]; ATCC90028, Candida albicans ATCC 90028) was 1 µg/mL (≈ 3.27 µM), the “polymer efficacy against budding yeasts, 50%” value (“polymer efficacy … 50%” below) (Candida albicans [1]; C. albicans CA1, ATCC90028, Blood) was 1 and the “polymer efficacy … 50%” value (Candida albicans [1]; C. albicans CA2, SC5314) was 0.25. For the same compound, the “polymer efficacy … 50%” value (Candida albicans [1]; C. albicans CA3, Blood, Azole resistant) was >64, the MIC50 (Candida albicans [1]; Candida albicans CA3, Resistance Azole) was > 64 µg/mL and the MIC (Candida albicans [1]; Candida albicans, C. albicans (E4), Amp B Resistant, RPMI 1640 (0.2% Glucose), […]10^5 cells/mL, 30° C.) was > 200 µg/mL. The MIC (Candida albicans [1]; Candida albicans, C. albicans (E4), […]10^3 cells/mL, 35°C) was > 654 µM, the MIC (Candida albicans [1]; Candida albicans, C. albicans (Gu5), Fluconazole Resistant, RPMI 1640 (0.2% Glucose), […]10^5 cells/mL, 30° C.) was > 200 µg/mL and the MIC (Candida albicans [1]; Candida albicans, C. albicans (Gu5), […]10^3 cells/mL, 35°C) was > 654 µM. For the same compound, the MIC (Candida albicans [1]; Candida albicans, C. albicans (K1), Fluconazole Resistant, RPMI 1640 (0.2% Glucose), […]10^5 cells/mL, 30° C.) was > 200 µg/mL, the MIC (Candida albicans [1]; Candida albicans, C. albicans (K1), […]10^3 cells/mL, 35°C) was > 654 µM and the MIC (Candida albicans [1]; Candida albicans, C. albicans (SCG5314), Sensitive, RPMI 1640 (0.2% Glucose), […]10^5 cells/mL, 30° C.) was < 0.2 µg/mL. For the same compound, the MIC50 (Candida albicans [1]; Candida albicans, SC5314) was 0.25 µg/mL (≈ 0.816 µM), the MIC (Candida albicans [1]; Candida albicans, SC5314, C. albicans (SC5314), […]10^3 cells/mL, 35°C) was > 654 µM and the MIC (Candida lusitaniae [2]; CL3, […]10^3 cells/mL, 35°C, OD600 24 h, avg., listed as FLU) was >200 µg/mL. The MIC (Candida lusitaniae [2]; CL3, […]10^3 cells/mL, 35°C, OD600 24 h, avg., listed as FLU, read-out: MIC) was >653.0 µM, the MIC (Candida lusitaniae [2]; CL3, […]10^3 cells/mL, 35°C, OD600 24 h, trial 2, listed as FLU) was >200 µg/mL and the MIC (Candida lusitaniae [2]; CL3, […]10^3 cells/mL, 35°C, OD600 24 h, trial 2, listed as FLU, read-out: MIC) was >653.0 µM. It also gave an MIC (Candida lusitaniae [2]; CL3, […]10^5 cells/mL, 30°C, OD600 48 h, avg., listed as FLU) of 0.8 µg/mL, an MIC (Candida lusitaniae [2]; CL3, […]10^5 cells/mL, 30°C, OD600 48 h, avg., listed as FLU, read-out: MIC) of 2.6 µM and an MIC (Candida lusitaniae [2]; CL3, […]10^5 cells/mL, 30°C, OD600 48 h, trial 2, listed as FLU) of 0.8 µg/mL. The MIC (Candida lusitaniae [2]; CL3, […]10^5 cells/mL, 30°C, OD600 48 h, trial 2, listed as FLU, read-out: MIC) was 2.6 µM, the MIC (Candida lusitaniae [2]; Clavispora lusitaniae, 24 h, read-out: MIC) was > 200 µg/mL and > 653 µM and the MIC (Candida lusitaniae [2]; Clavispora lusitaniae, 48 h, read-out: MIC) was 0.8 µg/mL and 2.6 µM. The MFC (Candida albicans [3]; C. albicans (E4), Amp B Resistant, RPMI 1640 (0.2% Glucose), […]10^5 cells/mL, 30° C.) was >200 µg/mL, the MFC (Candida albicans [3]; C. albicans (Gu5), Fluconazole Resistant, RPMI 1640 (0.2% Glucose), […]10^5 cells/mL, 30° C.) was >200 µg/mL and the MFC (Candida albicans [3]; C. albicans (K1), Fluconazole Resistant, RPMI 1640 (0.2% Glucose), […]10^5 cells/mL, 30° C.) was >200 µg/mL. For the same compound, the MFC (Candida albicans [3]; C. albicans (SCG5314), Sensitive, RPMI 1640 (0.2% Glucose), […]10^5 cells/mL, 30° C.) was >200 µg/mL, the MFC (Candida albicans [3]; Candida albicans, SC5314, read-out: MFC) was > 200 µg/mL and > 653 µM and the MFC (Candida albicans [3]; Candida albicans, read-out: MFC) was > 200 µg/mL and > 653 µM. The MFC (Candida albicans [3]; E4, […]10^5 cells/mL, 30°C, avg., listed as FLU) was >200 µg/mL, the MFC (Candida albicans [3]; E4, […]10^5 cells/mL, 30°C, avg., listed as FLU, read-out: MFC) was >653 µM and the MFC (Candida albicans [3]; E4, […]10^5 cells/mL, 30°C, trial 1, listed as FLU) was >200 µg/mL. The MFC (Candida albicans [3]; E4, […]10^5 cells/mL, 30°C, trial 1, listed as FLU, read-out: MFC) was >653 µM, the MFC (Candida albicans [3]; E4, […]10^5 cells/mL, 30°C, trial 2, listed as FLU) was >200 µg/mL and the MFC (Candida albicans [3]; E4, […]10^5 cells/mL, 30°C, trial 2, listed as FLU, read-out: MFC) was >653 µM. The MFC (Candida albicans [3]; Gu5, […]10^5 cells/mL, 30°C, avg., listed as FLU) was >200 µg/mL, the MFC (Candida albicans [3]; Gu5, […]10^5 cells/mL, 30°C, avg., listed as FLU, read-out: MFC) was >653 µM and the MFC (Candida albicans [3]; Gu5, […]10^5 cells/mL, 30°C, trial 1, listed as FLU) was >200 µg/mL. For the same compound, the MFC (Candida albicans [3]; Gu5, […]10^5 cells/mL, 30°C, trial 1, listed as FLU, read-out: MFC) was >653 µM, the MFC (Candida albicans [3]; Gu5, […]10^5 cells/mL, 30°C, trial 2, listed as FLU) was >200 µg/mL and the MFC (Candida albicans [3]; Gu5, […]10^5 cells/mL, 30°C, trial 2, listed as FLU, read-out: MFC) was >653 µM. The MFC (Candida albicans [3]; K1, […]10^5 cells/mL, 30°C, avg., listed as FLU) was >200 µg/mL, the MFC (Candida albicans [3]; K1, […]10^5 cells/mL, 30°C, avg., listed as FLU, read-out: MFC) was >653 µM and the MFC (Candida albicans [3]; K1, […]10^5 cells/mL, 30°C, trial 2, listed as FLU) was >200 µg/mL. The MFC (Candida albicans [3]; K1, […]10^5 cells/mL, 30°C, trial 2, listed as FLU, read-out: MFC) was >653 µM, the MFC (Candida albicans [3]; SC5314, […]10^5 cells/mL, 30°C, avg., listed as FLU) was >200 µg/mL and the MFC (Candida albicans [3]; SC5314, […]10^5 cells/mL, 30°C, avg., listed as FLU, read-out: MFC) was >653 µM. The MFC (Candida albicans [3]; SC5314, […]10^5 cells/mL, 30°C, trial 1, listed as FLU) was >200 µg/mL, the MFC (Candida albicans [3]; SC5314, […]10^5 cells/mL, 30°C, trial 1, listed as FLU, read-out: MFC) was >653 µM and the MFC (Candida lusitaniae [4]) was 50 µg/mL (≈ 163 µM). The “polymer efficacy … 50%” value (Cryptococcus neoformans [5]) was >64, the “polymer efficacy … 50%” value (Cryptococcus neoformans [5]; C. neoformans CN1, Clinical isolate, Azole susceptible) was 4 and the MIC (Cryptococcus neoformans [5]; Cryptococcus neoformans, 48 h, C21F3, 30°C, OD600 48 h) was 1.6 µg/mL. The MIC (Cryptococcus neoformans [5]; Cryptococcus neoformans, 48 h, C21F3, 30°C, OD600 48 h, Table 15) was 5.2 µM, the MIC (Cryptococcus neoformans [5]; Cryptococcus neoformans, 48 h, H99, 30°C, OD600 48 h) was 3.1 µg/mL and the MIC (Cryptococcus neoformans [5]; Cryptococcus neoformans, 48 h, H99, 30°C, OD600 48 h, Table 15) was 10.1 µM. It also gave an MIC (Cryptococcus neoformans [5]; Cryptococcus neoformans, 48 h, JEC21, 30°C, OD600 48 h) of 1.6 µg/mL, an MIC (Cryptococcus neoformans [5]; Cryptococcus neoformans, 48 h, JEC21, 30°C, OD600 48 h, Table 15) of 5.2 µM and an MIC (Cryptococcus neoformans [5]; Cryptococcus neoformans, C. neoformans (C21F3), 30°C) of 5.2 µM. It also gave an MIC (Cryptococcus neoformans [5]; Cryptococcus neoformans, C. neoformans (H99), Sensitive, RPMI 1640 (0.2% Glucose), 37° C.) of 3.1 µg/mL, an MIC (Cryptococcus neoformans [5]; Cryptococcus neoformans, C. neoformans (H99), 30°C) of 10.1 µM and an MIC (Cryptococcus neoformans [5]; Cryptococcus neoformans, C. neoformans (JEC21), Sensitive, RPMI 1640 (0.2% Glucose), 37° C.) of 1.6 µg/mL. For the same compound, the MIC (Cryptococcus neoformans [5]; Cryptococcus neoformans, C. neoformans (JEC21), 30°C) was 5.2 µM, the MIC50 (Cryptococcus neoformans [5]; Cryptococcus neoformans, Cryptococcus neoformans CN1) was 4 µg/mL (≈ 13.1 µM) and the MIC (Cryptococcus gattii [6]; 48 h, C751, 30°C, OD600 48 h, Table 15) was 5.2 µM. For the same compound, the MIC (Cryptococcus gattii [6]; 48 h, C751, 30°C, OD600 48 h) was 1.6 µg/mL, the MIC (Cryptococcus gattii [6]; 48 h, WM276, 30°C, OD600 48 h, Table 15) was 2.6 µM and the MIC (Cryptococcus gattii [6]; 48 h, WM276, 30°C, OD600 48 h) was 0.8 µg/mL. The MIC (Cryptococcus gattii [6]; C. gattii (C751), Sensitive, RPMI 1640 (0.2% Glucose), 37° C.) was 1.6 µg/mL, the MIC (Cryptococcus gattii [6]; C. gattii (C751), 30°C) was 5.2 µM and the MIC (Cryptococcus gattii [6]; C. gattii (WM275), Sensitive, RPMI 1640 (0.2% Glucose), 37° C.) was 0.8 µg/mL. For the same compound, the MIC (Cryptococcus gattii [6]; C. gattii (WM276), 30°C) was 2.6 µM, the “concentration at which strain was killed (MFC)” value (Cryptococcus neoformans [7]; C21F3) was ~5 µM and the MFC (Cryptococcus neoformans [7]; Cryptococcus neoformans, C. neoformans (C21F3), Rapamycin Resistant, RPMI 1640 (0.2% Glucose), […]10^3 cells/mL, 37° C.) was 1.6 µg/mL (≈ 5.22 µM). The MFC (Cryptococcus gattii [8]; C. gattii (C751)) was 37.5 µg/mL (≈ 122 µM), the MFC (Cryptococcus gattii [8]; C. gattii (WM275)) was > 100 µg/mL and the MFC (Candida spp.; Candida resistant strains (totally resistant)) was > 654 µM. For the same compound, the “MIC and MFC values” (Candida spp.; Candida sensitive strains) was “low μM”, the MIC (Cryptococcus spp.; Cryptococcus) was ≤ 10 µM and the MFC (Cryptococcus spp.; Cryptococcus test strains (FLC: all strains except C21F3), read-out: MFC) was > 100 µM. The MIC50 (filamentous fungi) was 64 µg/mL (≈ 209 µM).
